We go through 23 compounds from patent publication US20260092057A1, “BCL-XL/BCL-2 DEGRADERS AND USES THEREOF” (Kymera Therapeutics, Inc., priority 2022, published 2026).

One assay relates to Caki-2 cells. Nature of the assay: CTG (CellTiter-Glo) cell viability assay, Caki-2. The assay is classed as cell-based. The conditions noted are these: Homo sapiens, CAKI-2, 72 h, Caki-2, 3-day; read-out: CTG Chempartner/PHA- Caki-2 3-day: Average external-IC50. As to the method:
(§1) Compound-mediated viability effect on MOLT-4 and Caki-2 was quantitatively determined using the CellTiter-Glo® Luminescent Cell Viability Assay kit from Promega (Catalog number G7570) following manufacturer's recommended procedures. Briefly, MOLT-4 and Caki-2 cells were seeded into 384 well plates (Grenier Bio-One, Catalog number 781080) with a density of 10,000 cells per well. Compounds were then added to the assay plate with final top concentration of 10 µM and 1:3 dilution series with total of 9 doses. The final DMSO concentration is normalized to 0.2%. The assay plates were incubated at 37° C. for 3 days under 5% CO2. Then the assay plate was equilibrated at room temperature for 10 minutes. To determine cell viability, 30 uL CellTiter Glo reagent was added to each well and the assay plate was centrifuged at 1000 rpm for 30 second, incubated at room temperature for 10 min, and analyzed by detecting the luminescence using a multimode plate reader (EnVision 2105, PerkinElmer). The data was then analyzed by software Prism 7.0 from GraphPad and the dose response curves are fit using a three-parameter logistic equation to calculate IC50.
(§2) The letter codes for MOLT-4 IC50 include: A (<0.1 μM); B (0.1-1.0 μM); C (>1.0-3.0 μM); and D (>3.0 μM). The letter codes for Caki-2 IC50 include: A (<5 μM); B (5-10 μM); C (>10-30.0 μM); and D (>30.0 μM).
(In general: ATP-based viability assays read luminescence as a measure of living cells.)

In the next assay the test system is MOLT-4 cells. Nature of the assay: CTG (CellTiter-Glo) cell viability assay, MOLT-4. The assay is classed as cell-based. The conditions noted are these: Homo sapiens, MOLT-4, 72 h, MOLT-4, 3 day; read-out: CTG Cell Viability Assay - MOLT-4 3 day: Average external-IC50. On the procedure:
as §1, §2

Each structure is given as a SMILES string.

With `Cc1ncsc1-c1ccc([C@H](C)NC(=O)[C@@H]2C[C@@H](O)CN2C(=O)[C@@H](NC(=O)CCCCCC(=O)N(C)CCCNc2ccc(S(=O)(=O)NC(=O)c3ccc(N4CCC([C@H](O)c5ccccc5-c5ccc(Cl)cc5)CC4)cc3Oc3cnc4[nH]ccc4c3)cc2S(=O)(=O)C(F)(F)F)C(C)(C)C)cc1` (single isomer, unassigned) [I-58], the results for the IC50 with Caki-2 cells and in the assay with MOLT-4 cells were more than 30000 nM and 1000 to 3000 nM, respectively.

For `Cc1ncsc1-c1ccc([C@H](C)NC(=O)[C@@H]2C[C@@H](O)CN2C(=O)[C@@H](NC(=O)CCCC(=O)N2CCN(CCCNc3ccc(S(=O)(=O)NC(=O)c4ccc(N5CCC([C@@H](O)c6ccccc6-c6ccc(Cl)cc6)CC5)cc4Oc4cnc5[nH]ccc5c4)cc3S(=O)(=O)C(F)(F)F)CC2)C(C)(C)C)cc1` (single isomer, unassigned) [I-59], the IC50 in the assay on Caki-2 cells is more than 30000 nM; in the assay with MOLT-4 cells, more than 3000 nM.

Regarding `Cc1ncsc1-c1ccc([C@H](C)NC(=O)[C@@H]2C[C@@H](N)CN2C(=O)[C@@H](NC(=O)C2CCN(CCCNc3ccc(S(=O)(=O)NC(=O)c4ccc(N5CCC([C@@H](O)c6ccccc6-c6ccc(Cl)cc6)CC5)cc4Oc4cnc5[nH]ccc5c4)cc3S(=O)(=O)C(F)(F)F)CC2)C(C)(C)C)cc1` (single isomer, unassigned) [I-91], the IC50 is more than 30000 nM with Caki-2 cells and more than 3000 nM in the assay on MOLT-4 cells.

For the compound `Cc1ncsc1-c1ccc([C@H](C)NC(=O)[C@@H]2C[C@@H](O)CN2C(=O)[C@@H](NC(=O)CCCCCC(=O)N2CCN(c3ccc(-c4ccc(Cl)cc4)c([C@@H](O)C4CCN(c5ccc(C(=O)NS(=O)(=O)c6ccc(N[C@H](CCN(C)CCO)CSc7ccccc7)c(S(=O)(=O)C(F)(F)F)c6)cc5)CC4)c3)CC2)C(C)(C)C)cc1` (single isomer, unassigned) [I-114], the IC50 in the assay with Caki-2 cells is more than 30000 nM; in the assay on MOLT-4 cells, more than 3000 nM.

For the compound `Cc1ncsc1-c1ccc([C@H](C)NC(=O)[C@@H]2C[C@@H](O)CN2C(=O)[C@@H](NC(=O)C2CCN(c3ccc(S(=O)(=O)NC(=O)c4ccc(-c5ccc(Cl)cc5)c(CN5CCN(c6ccc(C(=O)NS(=O)(=O)c7ccc(N[C@H](CCN(C)C)CSc8ccccc8)c([N+](=O)[O-])c7)cc6)CC5)c4)cc3)CC2)C(C)(C)C)cc1` [I-15], the figures for the IC50 with Caki-2 cells and with MOLT-4 cells were more than 30000 nM and more than 3000 nM, respectively.

In the case of `Cc1ncsc1-c1ccc([C@H](C)NC(=O)[C@@H]2C[C@@H](O)CN2C(=O)[C@@H](NC(=O)CCCCC(=O)N2C[C@H]3C[C@@H]2CN3Cc2ccc(-c3ccc(Cl)cc3)c(CN3CCN(c4ccc(C(=O)NS(=O)(=O)c5ccc(N[C@H](CCN(C)C)CSc6ccccc6)c([N+](=O)[O-])c5)cc4)CC3)c2)C(C)(C)C)cc1` [I-16], the IC50 was more than 30000 nM in the assay on Caki-2 cells and more than 3000 nM in the assay with MOLT-4 cells.

With `Cc1ncsc1-c1ccc([C@H](C)NC(=O)[C@@H]2C[C@@H](O)CN2C(=O)[C@@H](NC(=O)CCCCC(=O)N2CCC3(CCN(Cc4ccc(-c5ccc(Cl)cc5)c(CN5CCN(c6ccc(C(=O)NS(=O)(=O)c7ccc(N[C@H](CCN(C)C)CSc8ccccc8)c([N+](=O)[O-])c7)cc6)CC5)c4)CC3)CC2)C(C)(C)C)cc1` [I-17], the IC50 is more than 30000 nM with Caki-2 cells and more than 3000 nM with MOLT-4 cells.

Turning to `Cc1ncsc1-c1ccc(CNC(=O)[C@@H]2C[C@@H](O)CN2C(=O)[C@@H](NC(=O)C2(F)CC2)C(C)(C)C)c(OCCCCCCC(=O)N2CCN(Cc3ccc(-c4ccc(Cl)cc4)c(CN4CCN(c5ccc(C(=O)NS(=O)(=O)c6ccc(N[C@H](CCN(C)C)CSc7ccccc7)c([N+](=O)[O-])c6)cc5)CC4)c3)CC2)c1` [I-18], the IC50 in the assay on Caki-2 cells was more than 30000 nM; with MOLT-4 cells, more than 3000 nM.

In the case of `Cc1ncsc1-c1ccc([C@H](C)NC(=O)[C@@H]2C[C@@H](O)CN2C(=O)[C@@H](NC(=O)CCCCCCCCC(=O)NCc2ccc(-c3ccc(Cl)cc3)c(CN3CCN(c4ccc(C(=O)NS(=O)(=O)c5ccc(N[C@H](CCN(C)C)CSc6ccccc6)c([N+](=O)[O-])c5)cc4)CC3)c2)C(C)(C)C)cc1` [I-20], the values for the IC50 in the assay with Caki-2 cells and with MOLT-4 cells were more than 30000 nM and more than 3000 nM, respectively.

As to `Cc1ncsc1-c1ccc([C@H](C)NC(=O)[C@@H]2C[C@@H](O)CN2C(=O)[C@@H](NC(=O)CCCCCC(=O)N2CCN(Cc3ccc(-c4ccc(Cl)cc4)c([C@H](O)C4CCN(c5ccc(C(=O)NS(=O)(=O)c6ccc(N[C@H](CCN(C)CCO)CSc7ccccc7)c(S(=O)(=O)C(F)(F)F)c6)cc5)CC4)c3)CC2)C(C)(C)C)cc1` [I-30], the IC50 is more than 30000 nM with Caki-2 cells and more than 3000 nM in the assay with MOLT-4 cells.

On to `Cc1ncsc1-c1ccc([C@H](C)NC(=O)[C@@H]2C[C@@H](O)CN2C(=O)[C@@H](NC(=O)CCCCCC(=O)N2CCN(CC[C@H](CSc3ccccc3)Nc3ccc(S(=O)(=O)NC(=O)c4ccc(NC5CC(C)C5)cc4)cc3S(=O)(=O)C(F)(F)F)CC2)C(C)(C)C)cc1` (stereo partly shown) [I-44], for which the results for the IC50 with Caki-2 cells and in the assay on MOLT-4 cells were more than 30000 nM and more than 3000 nM, respectively.

Turning to `Cc1ncsc1-c1ccc([C@H](C)NC(=O)[C@@H]2C[C@@H](O)CN2C(=O)[C@@H](NC(=O)CCCCCC(=O)N2CCN(CC[C@H](CSc3ccccc3)Nc3ccc(S(=O)(=O)NC(=O)c4ccc(N5CC6(CCC6)C5)cc4)cc3S(=O)(=O)C(F)(F)F)CC2)C(C)(C)C)cc1` [I-45], the values for the IC50 in the assay on Caki-2 cells and with MOLT-4 cells were more than 30000 nM and more than 3000 nM, respectively.

With `Cc1ncsc1-c1ccc([C@H](C)NC(=O)[C@@H]2C[C@@H](O)CN2C(=O)[C@@H](NC(=O)CCCCCC(=O)N2CCN(CC[C@H](CSc3ccccc3)Nc3ccc(S(=O)(=O)NC(=O)c4ccc(N5CC[C@@H](N(C)C)C5)cc4)cc3S(=O)(=O)C(F)(F)F)CC2)C(C)(C)C)cc1` [I-46], the IC50 was more than 30000 nM with Caki-2 cells and more than 3000 nM in the assay with MOLT-4 cells.

For `Cc1ncsc1-c1ccc([C@H](C)NC(=O)[C@@H]2C[C@@H](O)CN2C(=O)[C@@H](NC(=O)CCCCCC(=O)N2CCN(CC[C@H](CSc3ccccc3)Nc3ccc(S(=O)(=O)NC(=O)c4ccc(N5CC6CN(C)CC6C5)cc4)cc3S(=O)(=O)C(F)(F)F)CC2)C(C)(C)C)cc1` (stereo partly shown) [I-47], the IC50 is more than 30000 nM with Caki-2 cells and more than 3000 nM in the assay with MOLT-4 cells.

For `Cc1ncsc1-c1ccc([C@H](C)NC(=O)[C@@H]2C[C@@H](O)CN2C(=O)[C@@H](NC(=O)CCCCCC(=O)N2CCN(CC[C@H](CSc3ccccc3)Nc3ccc(S(=O)(=O)NC(=O)c4ccc(N5CCC(N(C)C)CC5)cc4)cc3S(=O)(=O)C(F)(F)F)CC2)C(C)(C)C)cc1` [I-48], the IC50 is more than 30000 nM in the assay with Caki-2 cells and more than 3000 nM with MOLT-4 cells.

Regarding `Cc1ncsc1-c1ccc([C@H](C)NC(=O)[C@@H]2C[C@@H](O)CN2C(=O)[C@@H](NC(=O)CCCCCC(=O)N2CCN(CC[C@H](CSc3ccccc3)Nc3ccc(S(=O)(=O)NC(=O)c4ccc(N5CC(N(C)C)C5)cc4)cc3S(=O)(=O)C(F)(F)F)CC2)C(C)(C)C)cc1` [I-49], the IC50 in the assay with Caki-2 cells is more than 30000 nM; in the assay with MOLT-4 cells, more than 3000 nM.

For the compound `Cc1ncsc1-c1ccc([C@H](C)NC(=O)[C@@H]2C[C@@H](O)CN2C(=O)[C@@H](NC(=O)CCCCCC(=O)N2CCN(CC[C@H](CSc3ccccc3)Nc3ccc(S(=O)(=O)NC(=O)c4ccc(N5CCC6(CN(C)C6)C5)cc4)cc3S(=O)(=O)C(F)(F)F)CC2)C(C)(C)C)cc1` [I-50], the IC50 was more than 30000 nM in the assay with Caki-2 cells and more than 3000 nM with MOLT-4 cells.

`Cc1ncsc1-c1ccc([C@H](C)NC(=O)[C@@H]2C[C@@H](O)CN2C(=O)[C@@H](NC(=O)CCCCCC(=O)N2CCN(CC[C@H](CSc3ccccc3)Nc3ccc(S(=O)(=O)NC(=O)c4ccc(N5CCN(C)CC5)cc4)cc3S(=O)(=O)C(F)(F)F)CC2)C(C)(C)C)cc1` [I-53]: the figures for the IC50 in the assay on Caki-2 cells and in the assay with MOLT-4 cells were more than 30000 nM and more than 3000 nM, respectively.

`Cc1ncsc1-c1ccc([C@H](C)NC(=O)[C@@H]2C[C@@H](O)CN2C(=O)[C@@H](NC(=O)CCCCCC(=O)N2CCN(CCCNc3ccc(S(=O)(=O)NC(=O)c4ccc(N5CCC(C)(C)CC5)cc4Oc4cnc5[nH]ccc5c4)cc3S(=O)(=O)C(F)(F)F)CC2)C(C)(C)C)cc1` [I-54]: the IC50 was more than 30000 nM with Caki-2 cells and more than 3000 nM in the assay on MOLT-4 cells.

Consider `Cc1ncsc1-c1ccc([C@H](C)NC(=O)[C@@H]2C[C@@H](O)CN2C(=O)[C@@H](NC(=O)CCCCCC(=O)NCCCNc2ccc(S(=O)(=O)NC(=O)c3ccc(N4CCC([C@@H](O)c5ccccc5-c5ccc(Cl)cc5)CC4)cc3Oc3cnc4[nH]ccc4c3)cc2S(=O)(=O)C(F)(F)F)C(C)(C)C)cc1` [I-55], for which the IC50 with Caki-2 cells is more than 30000 nM; in the assay on MOLT-4 cells it was more than 3000 nM.

For `Cc1ncsc1-c1ccc([C@H](C)NC(=O)[C@@H]2C[C@@H](O)CN2C(=O)[C@@H](NC(=O)CCCCCC(=O)NCCCNc2ccc(S(=O)(=O)NC(=O)c3ccc(N4CCC([C@H](O)c5ccccc5-c5ccc(Cl)cc5)CC4)cc3Oc3cnc4[nH]ccc4c3)cc2S(=O)(=O)C(F)(F)F)C(C)(C)C)cc1` [I-56], the IC50 in the assay on Caki-2 cells is more than 30000 nM; in the assay on MOLT-4 cells it was more than 3000 nM.

Take `Cc1ncsc1-c1ccc([C@H](C)NC(=O)[C@@H]2C[C@@H](O)CN2C(=O)[C@@H](NC(=O)CCCCCC(=O)N2CCN(CCCNc3ccc(S(=O)(=O)NC(=O)c4ccc(N5CCN(C)CC5)cc4Oc4cnc5[nH]ccc5c4)cc3S(=O)(=O)C(F)(F)F)CC2)C(C)(C)C)cc1` [I-57]: the values for the IC50 with Caki-2 cells and in the assay with MOLT-4 cells were more than 30000 nM and more than 3000 nM, respectively.

With `Cc1ncsc1-c1ccc([C@H](C)NC(=O)[C@@H]2C[C@@H](O)CN2C(=O)[C@@H](NC(=O)CCCCCC(=O)N(C)CCCNc2ccc(S(=O)(=O)NC(=O)c3ccc(N4CCN(Cc5ccccc5-c5ccc(Cl)cc5)CC4)cc3Oc3cnc4[nH]ccc4c3)cc2S(=O)(=O)C(F)(F)F)C(C)(C)C)cc1` [I-61], the IC50 with Caki-2 cells is more than 30000 nM; with MOLT-4 cells, more than 3000 nM.
